Source: patent EP0415456A2, “Xanthine compounds” (priority 1989, dated 1991)
Like-named read-outs stand apart in the source and are kept apart here.

Legend:
[1] = system: glycerol-induced renal failure model; assay: renal-protecting effect (glycerol-induced renal failure model); type: in vivo; details: male Wistar rats; for suppression of increases of the serum creatinine and of urine-nitrogen: 0.01 - 10 mg/kg i.p., 24 hours after 50% glycerol s.c. (p < 0.05); for pathological examination of removed kidneys: state of kidneys: i.p., left kidney removed 24 hours after 50% glycerol s.c.
Experimental: A renal failure is a state wherein the renal function is lowered and the homeostasis of a body fluid can be no more maintained. It is known that an acute renal failure characteristic of uriniferous tubule disorder is caused by subcutaneous or intramuscular injection of glycerol to rats [Can. J. Physiol.
Male Wistar rats were kept deprived or water for 18 hours, and served for the test. A test compound was intraperitoneally administered to the rats (dosage: 1 mℓ/kg) and the rats were anesthetized with ether and 50% glycerol was subcutaneously administered (dosage: 0.8mℓ/100g) to the rats, pinching the dorsal skin. Twenty four hours after the administration of glycerol, the rats were anesthetized with ether and 5 mℓ of blood were collected from the abdominal aorta. The collected blood was allowed to stand for 30 minutes or longer and then centrifuged at 3,000 rpm for 10 minutes, and the amounts of the serum creatinine and urine-nitrogen (UN) contained in the serum were determined by auto analyzer (Olympus AU510) or measured by a creatinine test Wako (Jaffé method) and UN Test Wako (diacetylmonooxime direct method). Both are manufactured by Wako Pure Chemicals Co.
On the other hand, the left kidneys of the blood-sampled rats were removed and placed in formalin-filled vial bottles, and used as samples for the pathological examination.

Wistar rats = assay: diuretic effect; type: in vivo; details: 25 mg/kg oral, urine collected for 6 hours; for Increase in K⁺ excretion (%) / Increase in Na⁺excretion (%) / Increase in Urine (%): relative to control; for Na⁺/K⁺: relative value of control (control 1.00)
Experimental: Wistar rats (male: 150 - 300 g) were starved for 18 hours prior to the administration of the test compounds. […] Urine was collected for 6 hours after the administration. Urine volume was measured and the electrolytes (Na+ and K+) in the urine were determined with a flame photome[…], Hitachi Ltd., Japan). All parameters are expressed as relative values of control.

[2] = system: zig-zag strips of the trachea; assay: effects on passive Schultz-Dale reaction (antigen-induced contraction of sensitized trachea strips); design: species or system guinea pigs; details: Cavia porcellus, read-out: Passive S-D Reaction IC₅₀
Experimental: After 24 hours, the guinea pigs were stunned and exsanguinated, and then trachea were removed. The zig-zag strips of the trachea were prepared by the method of Emmerson, et al. [J. Pharm. […] The strips were suspended in Krebs-Henseleit solution at 37°C […] Antigen (EWA) was then introduced in the solution (final concentration; 1μg/ml), and the contraction was measured by […] After the contraction reached stable plateau, the compounds were cumulatively added in order to get concentration-relaxation curves. […]

[3] = system: death induced by Platelet-Activating Factor (PAF); assay: effect of inhibiting death induced by Platelet-Activating Factor (PAF); type: in vivo; details: Mus musculus; oral, dd strain mice, 40 µg/kg PAF i.v. 1 hour after administration; highest dose 100 mg/kg; read-out: MED (mg/kg) for Inhibiting Death Induced by PAF
Experimental: A test compound (100 mg/kg) was orally administered to dd strain mice (male animals, 28 to 32g) and 40 µg/kg of PAF (manufactured by Avanti Polar Lipids Co.) was administered via tail veins 1 hour after the administration according to the method of Carlson et al. [Agents and Actions, 21, 379 (1987)]. The mortality rates of compound-treated groups were compared with those of matched control groups, assessed during the same experimental session, by the Fisher's exact probability test. The cases wherein the level of significance (p value) is 0.05 or less are considered to be effective with respect to the inhibition. The above procedure was repeated, using the test compound in a decreasingly small quantity so as to find out the Minimum Effective Dosage (MED) wherein […] be observed between the test and control groups.

Adenosine A₁ Receptor = target: T1, Adenosine A₁ Receptor (Cavia porcellus, UniProt P47745); assay: Adenosine A1 receptor binding (3H-CHA binding); design: species or system guinea pig; details: guinea pig cerebrum; for inhibition at 100 µM: concentration of tested compound 10⁻⁴ M; for inhibition at 100 µM / inhibition at 10 µM: ³H-CHA 1.1 nM; for inhibition at 10 µM: concentration of tested compound 10⁻⁵ M
T1 construct: from tissue; host or cells: guinea pig cerebrum membrane preparation
T1 sequence (P47745 1-326): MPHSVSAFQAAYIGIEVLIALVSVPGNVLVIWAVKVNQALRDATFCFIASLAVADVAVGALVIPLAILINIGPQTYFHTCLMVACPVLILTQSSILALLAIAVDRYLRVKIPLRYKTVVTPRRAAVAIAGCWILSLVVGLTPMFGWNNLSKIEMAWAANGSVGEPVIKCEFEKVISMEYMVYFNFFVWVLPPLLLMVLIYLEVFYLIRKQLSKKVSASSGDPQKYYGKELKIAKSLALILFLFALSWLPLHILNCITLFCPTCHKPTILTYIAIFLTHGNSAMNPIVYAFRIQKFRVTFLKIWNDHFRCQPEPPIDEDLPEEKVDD
Experimental: Cerebrum of a guinea pig was suspended into ice cooled 50 mM tris hydroxymethyl aminomethane hydrochloride (Tris HCl) buffer (pH = 7.7), by using Polytron homogenizer (manufactured by Kinematica Co.). The suspension was centrifuged (50,000 x g, 10 minutes), and the precipitate was resuspended by adding the same volume of 50 mM Tris HCl buffer. The suspension was centrifuged under the same conditions, and the precipitate obtained was suspended once again by adding 10 volumes of 50 mM Tris HCl. The tissue suspension was incubated at 37°C for 30 minutes in the presence of 0.02 units/mg tissue of adenosine deaminase (manufactured by Sigma Co.). The resulting tissue suspension was recentrifuged (50,000 x g, 10 minutes), and 50 mM Tris HCl was added to the precipitate to adjust the concentration of tissue to 10 mg (wet weight)/mℓ.
The mixture was incubated at 25°C for 90 minutes, and the resulting reaction was stopped by rapid vacuum filtration through a glass fiber filter (GF/C manufactured by Whatman Co.) followed by immediately washing three times with 5 mℓ each of ice cold 50 mM Tris HCl buffer. […] Its radioactivity was then determined by a scintillation counter (manufactured by Packard Instrument Co.).
The inhibition rate of the test compounds against the binding of A₁ […] (³H-CHA binding) was calculated from the following equation: [formula]
• 1. […] The inhibition constant (Ki value) shown in the table was calculated from Cheng-Prusoff's equation.

A₂ receptor = target: T2, A₂ receptor (Rattus norvegicus, UniProt P30543); assay: Adenosine A2 receptor binding (3H-NECA binding); details: for inhibition at 10 µM / inhibition at 100 µM: read-out: A₂ Receptor Inhibition (%)
T2 construct: A precipitate was prepared from rat corpus striatum; from tissue; host or cells: rat corpus striatum membrane preparation
Experimental: A precipitate was prepared from rat corpus striatum in a similar manner as in 1) above. The precipitate was suspended by adding a 50 mM Tris HCl buffer containing 10 mM magnesium chloride and 0.02 unit/mg (tissue) of adenosine deaminase (manufactured by Sigma Co.) to adjust the concentration of tissue to 5 mg (wet weight)/mℓ.
The mixture was incubated at 25°C within 120 minutes. The resulting mixture was treated in the same manner as in 1) above to determine its radioactivity.
The inhibition rate of the test compound against the binding of A₂ receptor (³H-NECA binding) was calculated from the following equation: [formula]

male dd-strain mice = assay: acute toxicity test; type: in vivo; details: mouse, in vivo, 10080 min
Experimental: […]. The Minimum lethal dose (MLD) of the compounds was determined by observing whether or not the mice were alive after 7 days of the administration.

[4] = concentration to produce 50% relaxation of EWA (1µg/mℓ)-contracted trachea strips of passively sensitized guinea pigs

T2 sequence (P30543 whole entry): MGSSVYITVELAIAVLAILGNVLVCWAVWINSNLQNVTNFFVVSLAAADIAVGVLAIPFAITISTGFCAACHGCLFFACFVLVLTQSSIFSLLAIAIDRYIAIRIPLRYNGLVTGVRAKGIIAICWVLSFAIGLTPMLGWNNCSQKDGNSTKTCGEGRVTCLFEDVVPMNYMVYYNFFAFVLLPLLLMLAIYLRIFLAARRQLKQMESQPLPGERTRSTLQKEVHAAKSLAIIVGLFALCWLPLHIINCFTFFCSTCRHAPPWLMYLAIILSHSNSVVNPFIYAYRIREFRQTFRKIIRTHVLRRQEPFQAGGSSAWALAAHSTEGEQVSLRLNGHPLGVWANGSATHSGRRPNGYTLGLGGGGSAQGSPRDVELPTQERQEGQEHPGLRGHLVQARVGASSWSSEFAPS

Row | Structure (SMILES) | suppression of increases of the serum creatinine and of urine-nitrogen [1] | pathological examination of removed kidneys: state of kidneys [1] | Increase in K⁺ excretion (%) (Wistar rats) | Increase in Na⁺excretion (%) (Wistar rats) | Increase in Urine (%) (Wistar rats) | Na⁺/K⁺ (Wistar rats) | IC50 [2, 4] [µM] | minimal effective dose [3] [mg/kg] | inhibition at 100 µM (Adenosine A₁ Receptor) [%] | inhibition at 10 µM (Adenosine A₁ Receptor) [%] | inhibition at 10 µM (A₂ receptor) [%] | inhibition at 100 µM (A₂ receptor) [%] | Ki (A₂ receptor; ³H-NECA with CPA, rat corpus striatum, read-out: A₂ Receptor Ki) [µM] | Minimum lethal dose (MLD) (male dd-strain mice) | IC50 [2] [µM] | Ki (Adenosine A₁ Receptor; calculated from Cheng-Prusoff's equation, ³H-CHA) [µM]
1 | CCCn1c(=O)c2[nH]c(C(C)Cc3csc(C)n3)nc2n(CCC)c1=O (stereo not drawn) [Compound 8, 8-[1-Methyl-2-(2-methylthiazol-4-yl)ethyl]-1,3-dipropylxanthine] | significantly suppressed | significantly improved | 22 | 138 | 82 | 1.95 | 0.88 | 100 | – | – | – | – | – | – | – | –
2 | CCCn1c(=O)c2[nH]c(C34CC5CC(CC3C5)C4)nc2n(CCC)c1=O [Compound 14, 8-(Noradamantan-3-yl)-1,3-dipropylxanthine] | significantly suppressed | significantly improved | 68 | 244 | 315 | 2.05 | – | – | 101 | 101 | 63 | 77 | 0.38 | more than 300 mg/kg | – | –
3 | CCCn1c(=O)[nH]c(=O)c2[nH]c(C34CC5CC(CC3C5)C4)nc21 [Compound 25, 8-(Noradamantan-3-yl)-3-propylxanthine] | significantly suppressed | significantly improved | – | – | – | – | 17.3 | – | – | – | – | – | – | – | – | –
4 | Cn1c(=O)c2[nH]cnc2n(C)c1=O [Theophylline, 1,3-dimethylxanthine, reference compound] | – | – | – | – | – | – | – | 100 | – | – | – | – | – | – | 23 | –
5 | CCCn1c(=O)c2[nH]c(C34CC5CC(CC(C5)C3)C4)nc2n(CCC)c1=O [Compound 13, 8-(Adamantan-1-yl)-1,3-dipropylxanthine] | significantly suppressed | significantly improved | 37 | 186 | 129 | 2.09 | – | – | 100 | 100 | 63 | 71 | – | more than 300 mg/kg | – | 0.0078
6 | CCCn1c(=O)c2[nH]c(C(C)Cc3ccncc3)nc2n(CCC)c1=O (stereo not drawn) [Compound 7, 8-[1-methyl-2-(4-pyridyl)ethyl]-1,3-dipropylxanthine] | significantly suppressed | significantly improved | – | – | – | – | 2.7 | > 100 | – | – | – | – | – | – | – | –
7 | CCCn1c(=O)[nH]c(=S)c2[nH]c(C34CC5CC(CC3C5)C4)nc21 [Compound 26, 8-(Noradamantan-3-yl)-3-propyl-6-thioxanthine] | – | – | – | – | – | – | 22.7 | – | – | – | – | – | – | – | – | –
